# Source: ChEMBL document CHEMBL1201862, “PubChem BioAssay data set” (2004)
# Structures can show the parent of a compound that is named as a salt. Active and inactive are the calls of the source.
# Tests used:
# [1] = target: T1, DNA repair protein RAD52 homolog (Homo sapiens, UniProt P43351); assay type: functional, biochemical
# T1 sequence (P43351 whole entry): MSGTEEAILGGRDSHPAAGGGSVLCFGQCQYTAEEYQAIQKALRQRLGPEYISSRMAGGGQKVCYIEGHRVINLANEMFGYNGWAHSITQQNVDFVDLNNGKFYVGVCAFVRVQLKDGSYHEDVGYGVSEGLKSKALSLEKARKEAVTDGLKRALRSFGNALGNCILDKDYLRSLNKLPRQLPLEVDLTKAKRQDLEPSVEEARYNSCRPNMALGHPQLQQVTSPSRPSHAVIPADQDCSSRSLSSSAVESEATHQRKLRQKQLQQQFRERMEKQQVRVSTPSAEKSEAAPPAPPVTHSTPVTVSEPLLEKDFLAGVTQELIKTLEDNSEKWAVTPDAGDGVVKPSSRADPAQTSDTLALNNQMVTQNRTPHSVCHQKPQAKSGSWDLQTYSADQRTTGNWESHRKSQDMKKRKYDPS
# [2] = target: T2, DNA repair and recombination protein RAD54-like (Homo sapiens, UniProt Q92698); experiment: RAD54 Holliday junction migration blockers – biochemical, fluorescence, cherry-picked samples, dose series, confirmation (AID 651657); assay type: functional
# T2 sequence (Q92698 whole entry): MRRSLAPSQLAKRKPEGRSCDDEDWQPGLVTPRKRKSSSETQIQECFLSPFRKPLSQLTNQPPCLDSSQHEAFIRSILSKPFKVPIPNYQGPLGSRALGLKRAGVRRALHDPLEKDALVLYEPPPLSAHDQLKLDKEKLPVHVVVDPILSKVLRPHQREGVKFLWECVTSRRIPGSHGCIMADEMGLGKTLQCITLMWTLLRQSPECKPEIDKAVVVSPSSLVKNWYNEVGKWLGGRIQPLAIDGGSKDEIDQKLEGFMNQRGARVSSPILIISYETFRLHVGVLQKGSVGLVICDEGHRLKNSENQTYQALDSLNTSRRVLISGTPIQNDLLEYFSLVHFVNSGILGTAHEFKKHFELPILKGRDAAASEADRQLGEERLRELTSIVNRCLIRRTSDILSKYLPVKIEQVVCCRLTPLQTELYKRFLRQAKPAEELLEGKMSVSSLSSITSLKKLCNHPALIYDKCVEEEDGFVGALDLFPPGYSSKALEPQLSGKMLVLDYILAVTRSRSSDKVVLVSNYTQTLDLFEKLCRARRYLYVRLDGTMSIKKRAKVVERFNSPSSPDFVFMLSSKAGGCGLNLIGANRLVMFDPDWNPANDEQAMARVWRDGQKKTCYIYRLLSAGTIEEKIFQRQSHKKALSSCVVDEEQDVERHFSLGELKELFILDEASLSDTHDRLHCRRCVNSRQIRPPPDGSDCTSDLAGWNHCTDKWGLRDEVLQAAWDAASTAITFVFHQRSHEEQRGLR
# [3] = system: BJ; experiment: cells; assay type: functional, cell-based; settings: Homo sapiens
# [4] = system: BJ; experiment: BJ-TERT-LT-ST fibroblast viability loss – cell-based, RAS-independent, luminescence, dose response (AID 1935); assay type: functional; settings: Homo sapiens;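 note: BJ fibroblasts immortalized with TERT plus LT and ST oncogenes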
# [5] = microbe, parasite or virus in culture; assay type: functional; settings: Mycobacterium tuberculosis
# [6] = DRD fibroblast viability loss – cell-based, non-viral oncogenic, luminescence, dose response (AID 1934); assay type: functional; settings: Homo sapiens
# [7] = target: Luciferin 4-monooxygenase (Photinus pyralis, UniProt P08659); experiment: inhibition of purified Photinus pyralis luciferase – biochemical, luminescence, dose response (AID 1891)
# [8] = Luminescence Cell-Based Dose Confirmation HTS to Identify Inhibitors of Platelet Dense Granule Release. [Related pubchem assays: 1663 (Primary HTS), 1678 (Summary of Project)]; assay type: functional
# [9] = system: BJ; experiment: BJ-TERT fibroblast viability loss – cell-based, RAS-independent, luminescence, dose response (AID 1933); assay type: functional; settings: Homo sapiens
# [10] = target: Genome polyprotein (dengue virus type 2, UniProt P29990); experiment: flavivirus cap methylation enzyme inhibition – biochemical, confirmation dose response, primary screen (AID 588689); assay type: functional
# [11] = Luminescence Cell-Based Dose Confirmation HTS to Identify Activators of 5'UTR Stem-Loop Driven Alpha-Synuclein mRNA Translation in H4 Neuroglioblastoma Cells. [Related pubchem assays: 1829 (Project Summary), 1814 (Primary HTS)]; assay type: functional
# [12] = system: H4; experiment: Luminescence Cell-Based Dose Response HTS to Identify Activators of 5'UTR Stem-Loop Driven Prion Protein mRNA Translation in H4 Neuroglioblastoma Cells. [Related pubchem assays: 1829 (Project Summary), 1814 (Primary HTS)]; assay type: functional; settings: Homo sapiens
# [13] = Luminescence Cell-Based Dose Response HTS to Identify Activators of Luciferase Translation or Activity in H4 […] Cells. [Related pubchem assays: 1829 (Project Summary), 1814 (Primary HTS)]; assay type: functional
# [14] = Trypanosoma cruzi growth suppression in host cells – NIH3T3 host cells, beta-gal luminescence, confirmation (AID 2044); assay type: functional, cell-based;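 note: intracellular parasites grown in NIH/3T3 mouse fibroblasts as host cells; luminescent beta-galactosidase reporter signal from transgenic T. cruzi replicating inside host cells; inhibitors lower the luminescence signal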
# [15] = viability of HCT116 lacking mutant beta-catenin – cell-based, human colon tumor, dose response (AID 1045); assay type: functional;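 note: HCT116 colon tumor cells with beta catenin knocked out; cells exposed to compound for 60 hours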
# [16] = NIH3T3 cell viability loss – ATP luminescence, mouse fibroblasts, counter-screen, dose response (AID 2010); assay type: functional, cell-based;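 note: cells exposed to compound for about 90 hours before reading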
# [17] = viability of PTEN-deleted HCT116 cells – cell-based, HCT116 PTEN knockout, dose response (AID 1047); assay type: functional;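 note: HCT116 colon tumor cells with PTEN knocked out; cells exposed to compound for 60 hours before readout; potency for loss of cell viability measured by luminescence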
# [18] = target: T3, Fatty acid synthase (Homo sapiens, UniProt P49327); experiment: inhibition of human FAS-TE enzyme activity – biochemical, kinetic fluorescence intensity, dose response (AID 624326); assay type: functional;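 note: rate of fluorescence rise from hydrolysis of a fluorogenic O-methyl fluorescein ester substrate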
# [19] = target: T3, Fatty acid synthase; experiment: inhibition of human FAS-TE enzyme activity – biochemical, endpoint fluorescence intensity, uHTS hits, dose response (AID 624327); assay type: functional;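 note: fluorescence from hydrolysis of an O-methyl fluorescein acyl ester substrate by the enzyme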
# [20] = target: Cytochrome P450 3A4 (Homo sapiens, UniProt P08684); settings: Potency;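 note: confirmatory qHTS run detecting inhibitors and substrates of CYP3A4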
# [21] = target: T4, Rac GTPase-activating protein 1 (Homo sapiens, UniProt Q9H0H5); experiment: blockers of MgcRacGAP-driven Rac1 GTP hydrolysis – biochemical, ADP Hunter fluorescence, primary and confirmatory, confirmation (AID 624330); assay type: functional
# T4 sequence (Q9H0H5 whole entry): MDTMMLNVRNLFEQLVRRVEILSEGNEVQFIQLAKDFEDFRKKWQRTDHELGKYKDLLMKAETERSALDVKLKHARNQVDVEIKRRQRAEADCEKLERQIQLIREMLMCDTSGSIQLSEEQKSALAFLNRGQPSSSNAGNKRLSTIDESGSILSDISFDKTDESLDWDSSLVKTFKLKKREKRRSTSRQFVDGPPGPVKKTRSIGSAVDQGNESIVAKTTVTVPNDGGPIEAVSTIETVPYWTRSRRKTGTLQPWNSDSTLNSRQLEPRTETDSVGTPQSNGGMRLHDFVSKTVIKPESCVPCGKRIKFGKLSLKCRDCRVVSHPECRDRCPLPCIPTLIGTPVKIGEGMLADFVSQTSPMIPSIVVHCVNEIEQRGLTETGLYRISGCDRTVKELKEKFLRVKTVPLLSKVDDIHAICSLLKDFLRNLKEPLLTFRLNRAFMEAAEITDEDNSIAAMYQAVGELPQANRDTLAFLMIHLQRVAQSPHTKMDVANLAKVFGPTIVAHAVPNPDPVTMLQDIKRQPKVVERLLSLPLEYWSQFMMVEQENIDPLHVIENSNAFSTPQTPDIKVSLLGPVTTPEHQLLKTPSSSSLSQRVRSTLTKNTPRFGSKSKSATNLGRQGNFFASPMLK
# [22] = target: T5, Ubiquitin-conjugating enzyme E2 N (Homo sapiens, UniProt P61088); assay type: functional;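 note: Dose-response confirmation in a TR-FRET assay detecting UBC13-driven polyubiquitin chain formation, inhibition measured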
# T5 sequence (P61088 whole entry): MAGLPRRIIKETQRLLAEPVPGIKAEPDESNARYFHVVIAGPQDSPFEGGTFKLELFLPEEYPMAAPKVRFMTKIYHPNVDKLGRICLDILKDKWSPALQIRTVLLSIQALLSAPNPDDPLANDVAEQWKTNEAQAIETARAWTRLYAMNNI
# [23] = system: Vero; experiment: cells; assay type: functional; settings: Chlorocebus sabaeus
# [24] = target: FAD-linked sulfhydryl oxidase ALR (Homo sapiens, UniProt P55789); experiment: ALR-catalysed DTT oxidation blockers – biochemical, H2O2 detection, luminescence, cherry-pick, dose response (AID 493248)
# [25] = cells; assay type: functional
# Sequence of Genome polyprotein (P29990 2492-3391 limits assumed): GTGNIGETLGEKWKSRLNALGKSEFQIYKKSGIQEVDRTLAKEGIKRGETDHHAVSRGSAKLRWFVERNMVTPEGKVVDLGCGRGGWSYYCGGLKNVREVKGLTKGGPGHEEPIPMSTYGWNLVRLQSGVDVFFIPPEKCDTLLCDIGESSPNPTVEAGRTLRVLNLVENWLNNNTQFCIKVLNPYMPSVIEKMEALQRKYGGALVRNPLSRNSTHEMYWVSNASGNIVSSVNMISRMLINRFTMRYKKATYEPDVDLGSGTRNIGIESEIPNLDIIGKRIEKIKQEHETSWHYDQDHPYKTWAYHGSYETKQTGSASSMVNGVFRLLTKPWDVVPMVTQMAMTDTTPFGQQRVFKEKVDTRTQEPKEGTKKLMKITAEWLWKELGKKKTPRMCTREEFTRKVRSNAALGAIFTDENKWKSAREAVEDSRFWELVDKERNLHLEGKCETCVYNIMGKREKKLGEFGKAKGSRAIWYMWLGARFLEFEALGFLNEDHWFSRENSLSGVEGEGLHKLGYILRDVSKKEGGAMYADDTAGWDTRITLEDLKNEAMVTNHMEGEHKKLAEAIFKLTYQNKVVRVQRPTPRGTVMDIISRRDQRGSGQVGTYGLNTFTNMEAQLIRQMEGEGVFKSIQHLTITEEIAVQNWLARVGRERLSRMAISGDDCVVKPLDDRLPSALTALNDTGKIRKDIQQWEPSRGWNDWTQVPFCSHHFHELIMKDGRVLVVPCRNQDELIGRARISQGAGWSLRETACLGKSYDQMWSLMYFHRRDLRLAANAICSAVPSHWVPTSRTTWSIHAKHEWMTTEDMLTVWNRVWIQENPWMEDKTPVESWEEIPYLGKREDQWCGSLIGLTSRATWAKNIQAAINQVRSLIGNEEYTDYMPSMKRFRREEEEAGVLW
# T3 sequence (P49327 whole entry): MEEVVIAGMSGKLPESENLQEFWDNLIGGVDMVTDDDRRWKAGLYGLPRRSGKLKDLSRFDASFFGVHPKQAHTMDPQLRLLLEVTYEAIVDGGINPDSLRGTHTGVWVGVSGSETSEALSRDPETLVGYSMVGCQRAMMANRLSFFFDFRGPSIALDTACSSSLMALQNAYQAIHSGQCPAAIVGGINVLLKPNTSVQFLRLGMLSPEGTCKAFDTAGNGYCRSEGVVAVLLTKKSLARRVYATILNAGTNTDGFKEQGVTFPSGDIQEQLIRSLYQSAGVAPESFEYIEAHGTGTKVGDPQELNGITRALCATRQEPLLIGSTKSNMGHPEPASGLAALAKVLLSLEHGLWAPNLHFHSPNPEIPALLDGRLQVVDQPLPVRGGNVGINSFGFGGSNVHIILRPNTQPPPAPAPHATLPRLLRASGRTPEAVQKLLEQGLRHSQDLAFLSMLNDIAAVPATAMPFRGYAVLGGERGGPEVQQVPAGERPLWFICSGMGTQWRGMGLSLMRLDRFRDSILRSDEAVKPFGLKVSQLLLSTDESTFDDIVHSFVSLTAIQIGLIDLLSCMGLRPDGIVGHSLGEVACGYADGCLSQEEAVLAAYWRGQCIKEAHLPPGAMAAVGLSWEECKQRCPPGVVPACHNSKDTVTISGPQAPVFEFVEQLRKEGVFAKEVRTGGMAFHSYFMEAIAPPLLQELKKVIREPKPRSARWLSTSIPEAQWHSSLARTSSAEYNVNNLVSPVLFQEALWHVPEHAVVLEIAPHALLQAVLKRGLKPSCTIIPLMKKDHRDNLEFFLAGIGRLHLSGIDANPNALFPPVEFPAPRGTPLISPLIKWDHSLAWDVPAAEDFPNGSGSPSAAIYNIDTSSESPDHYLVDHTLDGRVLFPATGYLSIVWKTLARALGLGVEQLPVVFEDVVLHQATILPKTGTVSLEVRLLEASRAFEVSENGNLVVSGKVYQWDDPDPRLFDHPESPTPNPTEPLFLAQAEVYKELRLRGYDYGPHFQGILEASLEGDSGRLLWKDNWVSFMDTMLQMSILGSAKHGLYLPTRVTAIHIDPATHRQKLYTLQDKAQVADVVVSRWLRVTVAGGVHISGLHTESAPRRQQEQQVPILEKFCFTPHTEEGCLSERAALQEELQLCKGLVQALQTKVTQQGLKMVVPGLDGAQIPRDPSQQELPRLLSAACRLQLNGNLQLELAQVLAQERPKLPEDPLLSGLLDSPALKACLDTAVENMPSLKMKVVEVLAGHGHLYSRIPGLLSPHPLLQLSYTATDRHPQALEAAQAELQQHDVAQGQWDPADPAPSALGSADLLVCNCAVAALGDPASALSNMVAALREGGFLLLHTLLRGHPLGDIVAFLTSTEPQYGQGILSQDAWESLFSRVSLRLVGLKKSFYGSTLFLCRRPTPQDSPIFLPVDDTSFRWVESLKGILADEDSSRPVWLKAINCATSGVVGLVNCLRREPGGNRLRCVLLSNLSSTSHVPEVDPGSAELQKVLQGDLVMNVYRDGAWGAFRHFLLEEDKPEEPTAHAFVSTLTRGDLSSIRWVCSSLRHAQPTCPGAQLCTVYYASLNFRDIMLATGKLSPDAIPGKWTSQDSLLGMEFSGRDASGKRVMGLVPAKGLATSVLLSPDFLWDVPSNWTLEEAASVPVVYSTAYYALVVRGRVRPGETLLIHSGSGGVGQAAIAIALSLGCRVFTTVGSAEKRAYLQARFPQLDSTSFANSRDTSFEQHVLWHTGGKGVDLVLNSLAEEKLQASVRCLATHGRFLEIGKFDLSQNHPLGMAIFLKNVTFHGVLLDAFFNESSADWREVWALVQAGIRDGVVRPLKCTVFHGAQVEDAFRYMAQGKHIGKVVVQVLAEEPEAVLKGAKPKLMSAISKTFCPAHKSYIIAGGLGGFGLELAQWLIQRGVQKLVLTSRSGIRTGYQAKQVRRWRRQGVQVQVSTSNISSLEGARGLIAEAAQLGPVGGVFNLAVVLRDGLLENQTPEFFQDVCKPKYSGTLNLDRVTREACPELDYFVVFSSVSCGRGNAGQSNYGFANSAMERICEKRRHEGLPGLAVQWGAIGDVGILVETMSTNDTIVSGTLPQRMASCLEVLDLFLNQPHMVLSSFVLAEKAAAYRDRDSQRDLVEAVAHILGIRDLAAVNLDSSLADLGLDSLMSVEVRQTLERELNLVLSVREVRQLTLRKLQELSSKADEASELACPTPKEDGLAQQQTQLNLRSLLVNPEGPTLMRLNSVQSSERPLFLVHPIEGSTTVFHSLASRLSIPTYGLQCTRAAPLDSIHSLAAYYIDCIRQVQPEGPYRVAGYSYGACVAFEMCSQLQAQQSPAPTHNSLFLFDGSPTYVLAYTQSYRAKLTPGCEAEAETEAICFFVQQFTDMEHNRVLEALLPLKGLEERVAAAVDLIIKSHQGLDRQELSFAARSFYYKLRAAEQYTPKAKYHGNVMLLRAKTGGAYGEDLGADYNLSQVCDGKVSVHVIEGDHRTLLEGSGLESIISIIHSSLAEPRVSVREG
# Sequence of Cytochrome P450 3A4 (P08684 whole entry): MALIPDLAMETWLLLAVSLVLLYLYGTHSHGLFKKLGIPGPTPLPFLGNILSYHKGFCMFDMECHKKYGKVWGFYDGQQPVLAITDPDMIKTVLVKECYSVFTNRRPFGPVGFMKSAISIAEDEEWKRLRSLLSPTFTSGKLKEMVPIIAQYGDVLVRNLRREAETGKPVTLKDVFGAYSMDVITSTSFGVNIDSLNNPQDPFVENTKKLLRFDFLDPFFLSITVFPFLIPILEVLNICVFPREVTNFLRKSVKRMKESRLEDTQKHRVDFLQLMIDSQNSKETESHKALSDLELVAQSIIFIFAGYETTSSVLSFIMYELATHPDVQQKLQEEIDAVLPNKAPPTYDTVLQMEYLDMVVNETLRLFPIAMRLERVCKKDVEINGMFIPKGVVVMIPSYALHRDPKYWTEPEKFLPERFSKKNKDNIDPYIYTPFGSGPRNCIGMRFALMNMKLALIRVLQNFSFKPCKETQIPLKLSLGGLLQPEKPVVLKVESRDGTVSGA
# Sequence of FAD-linked sulfhydryl oxidase ALR (P55789 whole entry): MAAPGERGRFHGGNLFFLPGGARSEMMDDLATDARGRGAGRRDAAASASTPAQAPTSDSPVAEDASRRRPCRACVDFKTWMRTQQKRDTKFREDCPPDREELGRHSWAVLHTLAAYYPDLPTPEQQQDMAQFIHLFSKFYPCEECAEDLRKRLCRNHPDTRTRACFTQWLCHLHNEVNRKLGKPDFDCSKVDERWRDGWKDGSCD
# Sequence of Luciferin 4-monooxygenase (P08659 whole entry): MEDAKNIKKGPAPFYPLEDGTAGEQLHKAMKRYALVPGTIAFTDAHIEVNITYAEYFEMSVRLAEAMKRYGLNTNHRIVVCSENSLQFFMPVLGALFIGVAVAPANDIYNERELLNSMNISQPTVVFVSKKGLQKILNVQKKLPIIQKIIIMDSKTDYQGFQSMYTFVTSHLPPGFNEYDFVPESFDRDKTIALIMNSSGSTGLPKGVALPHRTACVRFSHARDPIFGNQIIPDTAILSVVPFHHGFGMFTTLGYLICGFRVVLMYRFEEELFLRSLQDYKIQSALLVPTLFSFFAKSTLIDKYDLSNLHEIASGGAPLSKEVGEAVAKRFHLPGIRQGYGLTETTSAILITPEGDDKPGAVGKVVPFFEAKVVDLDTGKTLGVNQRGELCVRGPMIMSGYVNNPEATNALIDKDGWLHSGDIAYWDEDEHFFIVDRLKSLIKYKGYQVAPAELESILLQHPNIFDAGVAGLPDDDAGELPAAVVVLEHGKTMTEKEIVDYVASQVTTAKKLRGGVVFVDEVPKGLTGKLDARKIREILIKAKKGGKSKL
smiles,measurement,setting,value
CCN(CC)CCn1c2ccc(Cl)cc2c2nc(C)sc21,AC50,[1],5.39 µM (active)
same,AC50,[2],22.1 µM (active)
CCCCN(CC)CCCNC(=S)Nc1ccc2nc(N3CCN(C)CC3)cc(C)c2c1,AC50,[1],1.95 µM (active)
same,AC50,[2],30.8 µM (active)
O=C(CCl)NCCCCCCCCCNC(=O)CCl,EC50,[3],> 150 µM (not active)
same,EC50,[4],> 150 µM (not active)
same,CC50,[5],19 µM (active)
same,EC50,[6],> 150 µM (not active)
same,EC50,[7],> 112 µM (not active)
same,EC50,[8],> 112 µM (not active)
same,EC50,[9],18.8 µM (active)
COc1cc(/C=C2\SC(=S)N(C(C(=O)O)c3ccccc3)C2=O)cc(OC)c1OC (centres undefined),IC50,[10],> 100 µM (active)
Cc1occc1C(=O)N/N=C/c1cccc2ccccc12,EC50,[11],0.129 µM (active)
same,EC50,[12],52.9 µM (active)
same,EC50,[13],0.19 µM (active)
Cn1nc(-c2ccc(N3CCCCC3)c(NC(=O)c3ccco3)c2)c2ccccc2c1=O,EC50,[14],1.23 µM (active)
same,CC50,[5],26.3 µM (active)
same,EC50,[15],9.07 µM (active)
same,EC50,[16],> 60 µM (not active)
same,EC50,[17],7.35 µM (active)
Cc1cccc(N2CCN(C(=O)CNC(=O)c3ccccc3)CC2)c1C,EC50,[11],19.2 µM (active)
same,EC50,[12],> 60 µM (not active)
same,EC50,[13],11.3 µM (active)
CC(C)OC(=O)c1sc2nc3c(cc2c1N)C(=O)CCC3,EC50,[11],41.9 µM (active)
same,EC50,[12],41.6 µM (active)
same,EC50,[13],73.1 µM (active)
O=C(COC(=O)c1cc([N+](=O)[O-])ccc1NCCO)c1ccccc1,IC50,[18],8.98 µM (active)
same,IC50,[19],8.17 µM (active)
OCCN1CCN(c2nc(-c3ccccc3O)nc3ccccc23)CC1,AC50,[2],7.01 µM (active)
CS(C)(=O)=O [DIMETHYL SULFONE],AC50,[20],20 µM (inconclusive)
COc1ccc(NC(=O)COC(=O)c2cc([N+](=O)[O-])ccc2N2CCOCC2)cc1,IC50,[18],2.1 µM (active)
same,IC50,[19],2.92 µM (active)
Nc1ccc(Oc2ccc(N)cc2)cc1,AC50,[20],31.6 µM (inconclusive)
Oc1ccc(Nc2ccnc3cc(Cl)ccc23)cc1,AC50,[2],80.3 µM (active)
same,IC50,[21],28.1 µM (active)
CCCCC(CC)COC(=O)CCCCC(=O)OCC(CC)CCCC (centres undefined),AC50,[20],20 µM (inconclusive)
O=C(N/C(=C/c1ccccc1)C(=O)N1CCOCC1)c1ccc([N+](=O)[O-])cc1,IC50,[18],7.55 µM (active)
same,IC50,[19],16.8 µM (active)
CN1CCCCC1c1ccc(-c2cccnc2)nc1 (centres undefined) [ANABASAMINE HYDROCHLORIDE],AC50,[20],12.6 µM (inconclusive)
CN(Cc1ccccc1)C(=O)COC(=O)c1cc(Cl)nc(Cl)c1,IC50,[18],13.5 µM (active)
same,IC50,[19],8.07 µM (active)
CN(C)CCCNC(=O)/C(=C\C=C\c1ccccc1)NC(=O)c1ccc([N+](=O)[O-])cc1,IC50,[18],4.11 µM (active)
same,IC50,[19],0.87 µM (active)
C#CCOc1c(/C=C\c2nc(O)c([N+](=O)[O-])c(O)n2)cc(Br)cc1OC,IC50,[10],74.5 µM (active)
CSc1nc2sc3c(c2c(=O)n1C)CCC(C)C3 (centres undefined),EC50,[11],5.51 µM (active)
same,EC50,[12],15.3 µM (active)
same,EC50,[13],19.9 µM (active)
COC(c1ccccc1Br)C(C)/C=C/CCO (centres undefined),AC50,[20],3.16 µM (inconclusive)
CCOC(=O)c1c(NC(=O)C(NCCN(C)C)c2ccccc2)sc2c1CCCC2 (centres undefined),CC50,[5],13.2 µM (active)
same,AC50,[1],10 µM (active)
same,IC50,[22],> 20 µM (inactive)
COc1ccc(C(=O)/C=C/c2ccccc2F)c(OC(=O)c2ccc([N+](=O)[O-])cc2)c1,CC50,[23],20.9 µM (active)
COC(C)(C)CCCC(C)C/C=C/C(C)=C/C(=O)OC(C)C (centres undefined),AC50,[20],31.6 µM (inconclusive)
O=C(CCC(=O)Nc1ccc(Br)cc1)N/N=C/c1cc([N+](=O)[O-])ccc1O,IC50,[18],8.73 µM (active)
same,IC50,[19],12.9 µM (active)
CNC(C)C#Cc1ccc2oc3cccc(OC)c3c(=O)c2c1 (centres undefined),AC50,[2],24.3 µM (active)
O=C(NNc1ccc([N+](=O)[O-])cn1)Nc1ccc(N=Nc2ccccc2)cc1,CC50,[23],19.4 µM (active)
COn1c(-c2ccc(Cl)cc2)nc2ncccc21,EC50,[11],0.106 µM (active)
same,EC50,[12],51.9 µM (active)
same,EC50,[13],35.5 µM (active)
CC1CCC(NC(=O)Cn2cc3c(n2)CCCC3)CC1 (centres undefined),EC50,[11],0.278 µM (active)
same,EC50,[12],4.09 µM (active)
same,EC50,[13],3.02 µM (active)
COc1cc(C)c(C(=O)Oc2cc(C)c(C(=O)O)c(O)c2C)c(OC)c1C [DIFFRACTAIC ACID],AC50,[20],25.1 µM (inconclusive)
same,AC50,[24],0.784 µM (active)
CC1=NOC(=O)/C1=C/c1ccc2c(c1)OCO2,IC50,[10],11.6 µM (active)
CCOC(=O)c1cnc2c(Cl)cccc2c1NCCCN1CCOCC1,AC50,[2],32.7 µM (active)
O=C(NCCc1c[nH]c2ccccc12)c1cc2ccccc2oc1=O,EC50,[11],0.481 µM (active)
same,EC50,[12],11 µM (active)
same,EC50,[13],119 µM (active)
same,IC50,[25],0.34 µM (active)
Cc1cccc2c1-c1sc(C(=O)Nc3ccccc3N3CCN(C)CC3)cc1CO2,CC50,[5],18.8 µM (active)
O=c1cc(-c2ccc(O)cc2)oc2cc(O)ccc12,AC50,[20],7.94 µM (inconclusive)
Cc1cc(NCCCN(C)C)n2c(nc3ccccc32)c1C#N,AC50,[2],18.7 µM (active)
